Active and inactive are the calls of the source. The rule behind the calls is not given here.
Test system: CCRIS mutagenicity, Ames/micronucleus/aberration tests
Assay: CCRIS mutagenicity studies
[1] = Test System: AMES SALMONELLA TYPHIMURIUM, Strain/Indicator: TA98, Metabolic Activation: NONE, Method: STANDARD PLATE
[2] = Test System: AMES SALMONELLA TYPHIMURIUM, Strain/Indicator: TA100, Metabolic Activation: NONE, Method: STANDARD PLATE
[3] = Test System: AMES SALMONELLA TYPHIMURIUM, Strain/Indicator: TA1535, Metabolic Activation: NONE, Method: STANDARD PLATE
[4] = Test System: AMES SALMONELLA TYPHIMURIUM, Strain/Indicator: TA1538, Metabolic Activation: NONE, Method: STANDARD PLATE
[5] = Test System: AMES SALMONELLA TYPHIMURIUM, Strain/Indicator: TA100, Metabolic Activation: NONE, Method: PREINCUBATION

CN(C)CCCNc1c2ccccc2nc2ccc([N+](=O)[O-])cc12
mutagenic call (Test System: AMES SALMONELLA TYPHIMURIUM, Strain/Indicator: TA98(1,8-DNP6), Metabolic Activation: NONE, Method: STANDARD PLATE): active; positive
mutagenic call (Test System: AMES SALMONELLA TYPHIMURIUM, Strain/Indicator: TA98(1,8-DNP6), Metabolic Activation: RAT, LIVER, S-9, Method: STANDARD PLATE): active; positive
mutagenic call (Test System: AMES SALMONELLA TYPHIMURIUM, Strain/Indicator: TA98(NR), Metabolic Activation: NONE, Method: STANDARD PLATE): active; positive
mutagenic call (Test System: AMES SALMONELLA TYPHIMURIUM, Strain/Indicator: TA98(NR), Metabolic Activation: RAT, LIVER, S-9, Method: STANDARD PLATE): active; positive
mutagenic call [1]: active; positive
mutagenic call (Test System: AMES SALMONELLA TYPHIMURIUM, Strain/Indicator: TA98, Metabolic Activation: RAT, LIVER, S-9, Method: STANDARD PLATE): active; positive
mutagenic call [2]: active; positive
mutagenic call [3]: active; positive
mutagenic call (Test System: AMES SALMONELLA TYPHIMURIUM, Strain/Indicator: TA1537, Metabolic Activation: NONE, Method: STANDARD PLATE): active; positive
mutagenic call (Test System: AMES SALMONELLA TYPHIMURIUM, Strain/Indicator: TA1537 PKM101, Metabolic Activation: NONE, Method: STANDARD PLATE): active; positive
mutagenic call [4]: active; positive
mutagenic call (Test System: CHINESE HAMSTER V-79, Strain/Indicator: V-79/6-THIOGUANINE, Metabolic Activation: NONE, Method: STANDARD PLATE): inactive; negative
mutagenic call (Test System: CHINESE HAMSTER V-79, Strain/Indicator: V-79/OUABAIN, Metabolic Activation: NONE, Method: STANDARD PLATE): inactive; negative
mutagenic call (Test System: Escherichia coli, Strain/Indicator: CC107 (G6 to G7 frameshifts), Metabolic Activation: None, Method: Modified preincubation): active; positive
mutagenic call (Test System: Escherichia coli, Strain/Indicator: CC108 (G6 to G5 frameshifts), Metabolic Activation: None, Method: Modified preincubation): active; positive
mutagenic call (Test System: Escherichia coli, Strain/Indicator: CC109 (CG5 to CG4 frameshifts), Metabolic Activation: None, Method: Modified preincubation): active; positive
mutagenic call (Test System: Escherichia coli, Strain/Indicator: CC111 (A7 to A6 frameshifts), Metabolic Activation: None, Method: Modified preincubation): active; positive

Oc1ccc(Cl)cc1Sc1cc(Cl)ccc1O
mutagenic call (Test System: AMES SALMONELLA TYPHIMURIUM, Strain/Indicator: TA97, Metabolic Activation: HAMSTER, LIVER, S-9, AROCLOR 1254 (10 OR 30%), Method: PREINCUBATION): inactive; negative
mutagenic call (Test System: AMES SALMONELLA TYPHIMURIUM, Strain/Indicator: TA97, Metabolic Activation: NONE, Method: PREINCUBATION): inactive; negative
mutagenic call (Test System: AMES SALMONELLA TYPHIMURIUM, Strain/Indicator: TA97, Metabolic Activation: RAT, LIVER, S-9, AROCLOR 1254 (10 OR 30%), Method: PREINCUBATION): inactive; negative
mutagenic call (Test System: AMES SALMONELLA TYPHIMURIUM, Strain/Indicator: TA98, Metabolic Activation: HAMSTER, LIVER, S-9, AROCLOR 1254 (10 OR 30%), Method: PREINCUBATION): inactive; negative
mutagenic call (Test System: AMES SALMONELLA TYPHIMURIUM, Strain/Indicator: TA98, Metabolic Activation: NONE, Method: PREINCUBATION): inactive; negative
mutagenic call (Test System: AMES SALMONELLA TYPHIMURIUM, Strain/Indicator: TA98, Metabolic Activation: RAT, LIVER, S-9, AROCLOR 1254 (10 OR 30%), Method: PREINCUBATION): inactive; negative
mutagenic call (Test System: AMES SALMONELLA TYPHIMURIUM, Strain/Indicator: TA100, Metabolic Activation: HAMSTER, LIVER, S-9, AROCLOR 1254 (10 OR 30%), Method: PREINCUBATION): inactive; negative
mutagenic call [5]: inactive; negative
mutagenic call (Test System: AMES SALMONELLA TYPHIMURIUM, Strain/Indicator: TA100, Metabolic Activation: RAT, LIVER, S-9, AROCLOR 1254 (10 OR 30%), Method: PREINCUBATION): inactive; negative
mutagenic call (Test System: AMES SALMONELLA TYPHIMURIUM, Strain/Indicator: TA1535, Metabolic Activation: HAMSTER, LIVER, S-9, AROCLOR 1254 (10 OR 30%), Method: PREINCUBATION): inactive; negative
mutagenic call (Test System: AMES SALMONELLA TYPHIMURIUM, Strain/Indicator: TA1535, Metabolic Activation: NONE, Method: PREINCUBATION): inactive; negative
mutagenic call (Test System: AMES SALMONELLA TYPHIMURIUM, Strain/Indicator: TA1535, Metabolic Activation: RAT, LIVER, S-9, AROCLOR 1254 (10 OR 30%), Method: PREINCUBATION): inactive; negative

C=COc1ccc([N+](=O)[O-])cc1
mutagenic call (Test System: AMES SALMONELLA TYPHIMURIUM, Strain/Indicator: TA100(NR), Metabolic Activation: MOUSE, LIVER, S-13, Method: STANDARD PLATE): active; positive
mutagenic call (Test System: AMES SALMONELLA TYPHIMURIUM, Strain/Indicator: TA100(NR), Metabolic Activation: NONE, Method: PREINCUBATION): inactive; negative
mutagenic call (Test System: AMES SALMONELLA TYPHIMURIUM, Strain/Indicator: TA100(NR), Metabolic Activation: NONE, Method: STANDARD PLATE): inactive; negative
mutagenic call (Test System: AMES SALMONELLA TYPHIMURIUM, Strain/Indicator: TA100(NR), Metabolic Activation: RAT, LIVER, S-9, PCB, Method: PREINCUBATION): active; positive
mutagenic call (Test System: AMES SALMONELLA TYPHIMURIUM, Strain/Indicator: TA100, Metabolic Activation: MOUSE, LIVER, S-13, Method: STANDARD PLATE): active; positive
mutagenic call [5]: active; positive
mutagenic call [2]: active; positive
mutagenic call (Test System: AMES SALMONELLA TYPHIMURIUM, Strain/Indicator: TA100, Metabolic Activation: RAT, LIVER, S-9, PCB, Method: PREINCUBATION): active; positive
mutagenic call (Test System: AMES SALMONELLA TYPHIMURIUM, Strain/Indicator: TA1535, Metabolic Activation: MOUSE, LIVER, S-13, Method: STANDARD PLATE): active; positive
mutagenic call [3]: inactive; negative

ONc1ccc2c(c1)Cc1ccccc1-2
mutagenic call [1]: active; positive
mutagenic call (Test System: AMES SALMONELLA TYPHIMURIUM, Strain/Indicator: TA98, Metabolic Activation: RAT, LIVER, S-9, AROCLOR 1254, Method: STANDARD PLATE): active; positive
mutagenic call (Test System: AMES SALMONELLA TYPHIMURIUM, Strain/Indicator: TA98, Metabolic Activation: S-9, Method: STANDARD PLATE): active; positive
mutagenic call [2]: active; positive
mutagenic call (Test System: AMES SALMONELLA TYPHIMURIUM, Strain/Indicator: TA100, Metabolic Activation: S-9, Method: STANDARD PLATE): active; positive
mutagenic call [4]: active; positive
mutagenic call (Test System: AMES SALMONELLA TYPHIMURIUM, Strain/Indicator: YG1020, Metabolic Activation: NONE, Method: PREINCUBATION): active; positive
mutagenic call (Test System: AMES SALMONELLA TYPHIMURIUM, Strain/Indicator: YG1024, Metabolic Activation: NONE, Method: PREINCUBATION): active; positive
mutagenic call (Test System: AMES SALMONELLA TYPHIMURIUM, Strain/Indicator: YG1025, Metabolic Activation: NONE, Method: PREINCUBATION): active; positive
mutagenic call (Test System: AMES SALMONELLA TYPHIMURIUM, Strain/Indicator: YG1029, Metabolic Activation: NONE, Method: PREINCUBATION): active; positive
mutagenic call (Test System: CHINESE HAMSTER OVARY, Strain/Indicator: CHO-K1-BH4 (HGPRT), Metabolic Activation: NONE, Method: SUSPENSION): active; positive
mutagenic call (Test System: E. COLI, Strain/Indicator: WP2, Metabolic Activation: NONE, Method: PREINCUBATION): active; positive
mutagenic call (Test System: E. COLI, Strain/Indicator: WP2 UVRA, Metabolic Activation: NONE, Method: PREINCUBATION): active; positive

CCN(CCCC(=O)O)N=O
mutagenic call (Test System: AMES SALMONELLA TYPHIMURIUM, Strain/Indicator: TA1535, Metabolic Activation: RAT, LIVER, S-9, KC500 OR PHENOBARBITAL, Method: LIQUID SUSPENSION): active; positive

Reference: PubChem BioAssay AID1259407 (Chemical Carcinogenesis Research Information System (CCRIS), 2018)
